From US20080125432A1 (Devgen NV, priority 2004, published 2008)
Read-outs that look alike come from different tables or passages of the source.

Target: T1, human Kv4.3/KChIP2.2 potassium channel (Homo sapiens, UniProt Q9UK17)
T1 construct: expressed in transfected cells
T1 sequence (Q9UK17 1-655): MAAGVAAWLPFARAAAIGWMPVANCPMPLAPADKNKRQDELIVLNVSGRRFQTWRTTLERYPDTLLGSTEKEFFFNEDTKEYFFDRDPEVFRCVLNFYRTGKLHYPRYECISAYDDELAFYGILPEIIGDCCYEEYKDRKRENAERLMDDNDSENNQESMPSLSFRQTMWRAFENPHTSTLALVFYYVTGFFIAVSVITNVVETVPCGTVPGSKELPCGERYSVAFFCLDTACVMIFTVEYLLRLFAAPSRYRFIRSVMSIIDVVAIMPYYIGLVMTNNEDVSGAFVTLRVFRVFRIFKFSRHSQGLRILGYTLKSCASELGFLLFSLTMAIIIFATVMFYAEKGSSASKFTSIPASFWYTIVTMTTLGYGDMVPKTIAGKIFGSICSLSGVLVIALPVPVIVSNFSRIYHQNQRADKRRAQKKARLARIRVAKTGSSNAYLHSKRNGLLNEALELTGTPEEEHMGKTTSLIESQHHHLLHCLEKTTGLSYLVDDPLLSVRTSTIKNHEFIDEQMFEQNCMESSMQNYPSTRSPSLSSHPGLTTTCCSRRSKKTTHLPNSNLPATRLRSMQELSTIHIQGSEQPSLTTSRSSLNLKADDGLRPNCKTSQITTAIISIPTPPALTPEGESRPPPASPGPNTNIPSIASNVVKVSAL
Assay: Whole cell patch clamp, CHO-K1 cells stably expressing human Kv4.3/KChIP2.2
Format: cell-based
Details: for remaining activity at 1 µM: CHO-K1

[1] = remaining current measured after application of the compound and relative to the blank, read-out: Kv4.3 charge in %
[2] = remaining peak height measured after application of the compound and relative to the blank, read-out: Kv4.3 peak in %
[3] = Kv4.3 mediated current, charge, patch clamp, read-out: Kv4.3 charge IC50
[4] = estimated by Hill fit with hill=1, ymax=100, tested at 2 μM, n=2, read-out: IC50 (μM) Kv4.3

Molecule | remaining activity at 1 µM [1] [%] | remaining activity at 1 µM [2] [%] | IC50 [3] [µM] | IC50 [4] [µM]
Cc1nc(NC(=O)c2ccc(C(C)(C)C)cc2)sc1C(=O)N[C@H]1CCC[C@@H]1OCc1ccccc1 [Compound 180, 2-(4-tert-butyl-benzoylamino)-4-methyl-thiazole-5-carboxylic acid ((1S,2S)-2-benzyloxycyclopent-1-yl) amide] | 73 | 97 | – | –
Cc1nc(Nc2ccc(Cl)cc2)sc1C(=O)N[C@@H]1CCC[C@H]1OCc1ccccc1 [Compound 30, 2-(4-chloro-phenylamino)-4-methyl-thiazole-5-carboxylic acid (1R,2R)-2-(benzyloxycyclopent-1-yl) amide] | – | – | 1.25 | 1.25
COc1ccc(CNC(=O)c2sc(Nc3ccc(Br)cc3)nc2C)cc1 [Compound 60, 2-(4-bromo-phenylamino)-4-methyl-thiazole-5-carboxylic acid 4-methoxy-benzylamide] | – | – | – | 0.39
COc1ccccc1Nc1ccc(C(=O)N[C@H]2CCC[C@@H]2OCc2ccccc2)s1 [Compound 75, 2-(2-methoxy-phenylamino)-thiophene-5-carboxylic acid ((1S,2S)-2-benzyloxycyclopent-1-yl) amide] | 41 | 81 | – | –
COc1ccccc1Nc1nc(C)c(C(=O)NCc2ccc3c(c2)CCO3)s1 [Compound 104, 2-(2-methoxy-phenylamino)-4-methyl-thiazole-5-carboxylic acid (2,3-dihydro-benzofuran-5-ylmethyl)-amide] | 77 | 93 | – | –
COc1ccccc1Nc1nc(C)c(C(=O)NCc2ccc(N(C)C)cc2)s1 [Compound 105, 2-(2-methoxy-phenylamino)-4-methyl-thiazole-5-carboxylic acid 4-dimethylamino-benzylamide] | 61 | 77 | – | –
COc1cccc([C@@H](C)NC(=O)c2sc(Nc3cc(Cl)ccc3OC)nc2C)c1 [Compound 34] | – | – | – | 1.62
Cc1nc(Nc2ccc(F)cc2)sc1C(=O)N[C@H](C)c1ccc2ccccc2c1 [Compound 16, 2-(4-fluoro-phenylamino)-4-methyl-thiazole-5-carboxylic acid (R)-1-(naphthalen-2-yl)ethyl amide] | – | – | – | 1.84
Cc1nc(Nc2ccc(Br)cc2)sc1C(=O)NCc1ccc(N(C)C)cc1 [Compound 64, 2-(4-bromo-phenylamino)-4-methyl-thiazole-5-carboxylic acid 4-dimethylamino-benzylamide] | – | – | – | 0.83
2-(4-bromo-phenylamino)-4-methyl-thiazole-5-carboxylic acid 1,2,3,4-tetrahydroisoquinolinamide [Compound 66] | – | – | 0.34 | 0.34
COc1ccccc1Nc1nc(C)c(C(=O)N[C@@H](C)c2ccc3ccccc3c2)s1 [Compound 55, 2-(2-methoxy-phenylamino)-4-methyl-thiazole-5-carboxylic acid (S)-1-(2-naphtalen-2-yl-ethyl)-amide] | – | – | – | 2.02
Cc1nc(Nc2ccc3occc3c2)sc1C(=O)N[C@H]1CCC[C@@H]1OCc1ccccc1 [Compound 126, 2-(benzofuran-5-ylamino)-4-methyl-thiazole-5-carboxylic acid ((1S,2S)-2-benzyloxycyclopent-1-yl) amide] | 58 | 89 | – | –
Cc1nc(Nc2ccc(Br)cc2)sc1C(=O)NCc1cccc2ccccc12 [Compound 56, 2-(4-bromo-phenylamino)-4-methyl-thiazole-5-carboxylic acid (naphtalen-1-yl-methyl)-amide] | – | – | 1.07 | 1.07
COc1ccccc1Nc1nccc(C(=O)N[C@H]2CCC[C@@H]2OCc2ccccc2)n1 [Compound 76, 2-(2-methoxy-phenylamino)-pyrimidine-4-carboxylic acid ((1S,2S)-2-benzyloxycyclopent-1-yl) amide] | 62 | 99 | – | –
Cc1nc(Sc2ccccc2)sc1C(=O)N[C@H]1CCC[C@@H]1OCc1ccccc1 [Compound 81, 4-methyl-2-phenylsulfanyl-thiazole-5-carboxylic acid ((1S,2S)-2-benzyloxycyclopent-1-yl) amide] | 51 | 90 | – | –
COc1cc(CNC(=O)c2sc(Nc3ccc(Br)cc3)nc2C)cc(OC)c1 [Compound 65, 2-(4-bromo-phenylamino)-4-methyl-thiazole-5-carboxylic acid 3,5-dimethoxy-benzylamide] | – | – | – | 0.18

Molecule | remaining activity at 1 µM [1] [%] | remaining activity at 1 µM [2] [%] | IC50 [3] [µM] | IC50 [4] [µM]
COc1ccccc1Nc1nc(C)c(C(=O)NCc2ccccc2SC)s1 [Compound 97] | 66 | 96 | – | –
Cc1nc(Nc2cccc3cccnc23)sc1C(=O)N[C@H]1CCC[C@@H]1OCc1ccccc1 [Compound 94, 4-methyl-2-(quinolin-8-ylamino)-thiazole-5-carboxylic acid ((1S,2S)-2-benzyloxycyclopent-1-yl) amide] | 49 | 89 | – | –
Cc1nc(Nc2ccc(Br)cc2)sc1C(=O)N[C@H](C)c1ccc2ccccc2c1 [Compound 19, 2-(4-bromo-phenylamino)-4-methyl-thiazole-5-carboxylic acid (R)-1-(naphthalen-2-yl)ethyl amide] | – | – | – | 2.72
COc1ccccc1Nc1nc(C)c(C(=O)NCc2c(C)cccc2Cl)s1 [Compound 98, 2-(2-methoxy-phenylamino)-4-methyl-thiazole-5-carboxylic acid 2-chloro-6-methyl-benzylamide] | 59 | 90 | – | –
Cc1nc(Nc2ccc3c(c2)OCCO3)sc1C(=O)N[C@H]1CCC[C@@H]1OCc1ccccc1 [Compound 95] | 61 | 91 | – | –
COc1ccccc1Nc1nc(C)c(C(=O)NCc2ccc(Br)cc2)s1 [Compound 108, 2-(2-methoxy-phenylamino)-4-methyl-thiazole-5-carboxylic acid 4-bromo-benzylamide] | 59 | 82 | – | –
Cc1nc(Nc2cccc3ccccc23)sc1C(=O)N[C@H]1CCC[C@@H]1OCc1ccccc1 [Compound 93] | 62 | 89 | – | –
Cc1nc(Nc2ccc(Br)cc2)sc1C(=O)NCc1ccc(F)c(C(F)(F)F)c1 [Compound 63, 2-(4-bromo-phenylamino)-4-methyl-thiazole-5-carboxylic acid 4-fluoro-3-trifluoromethyl-benzylamide] | – | – | – | 0.16
Cc1nc(Nc2ccc(Cl)cc2)sc1C(=O)N[C@@H](C)c1ccc2ccccc2c1 [Compound 54, 2-(4-chloro-phenylamino)-4-methyl-thiazole-5-carboxylic acid (S)-1-(2-naphtalen-2-yl-ethyl)-amide] | – | – | 2.41 | 2.41
Cc1nc(Nc2ccc(Cl)cc2)sc1C(=O)N[C@H](C)c1ccc2ccccc2c1 [Compound 52, 2-(4-chloro-phenylamino)-4-methyl-thiazole-5-carboxylic acid (R)-1-(2-naphtalen-2-yl-ethyl)-amide] | – | – | 0.34 | 0.34
COc1ccccc1Nc1nc(C)c(C(=O)NCc2ccc(C(C)(C)C)cc2)s1 [Compound 106, 2-(2-methoxy-phenylamino)-4-methyl-thiazole-5-carboxylic acid 4-tert-butyl-benzylamide] | 58 | 98 | – | –
COc1ccc(OC)c(Nc2nc(C)c(C(=O)N[C@@H]3CCC[C@H]3OCc3ccccc3)s2)c1 [Compound 33, 2-(2,5-dimethoxyphenylamino)-4-methylthiazole-5-carboxylic acid (1R,2R)-2-(benzyloxycyclopent-1-yl) amide] | – | – | – | 3.35
Cc1nc(Nc2ccc(Br)cc2)sc1C(=O)N[C@@H](C)c1ccc2ccccc2c1 [Compound 18, 2-(4-bromo-phenylamino)-4-methyl-thiazole-5-carboxylic acid (S)-1-(naphthalen-2-yl)ethyl amide] | – | – | – | 3.85
COc1ccccc1Nc1nc(C)c(C(=O)N[C@H]2CCC[C@@H]2OCc2ccccc2)s1 [Compound 68, 2-(2-methoxy-phenylamino)-4-methyl-thiazole-5-carboxylic acid (1S,2S)-2-(benzyloxycyclopent-1-yl) amide] | – | – | – | 0.54
COc1ccccc1Nc1nc(C)c(C(=O)N[C@@H]2CCC[C@H]2OCc2ccccc2)s1 [Compound 31, 2-(2-methoxy-phenylamino)-4-methyl-thiazole-5-carboxylic acid (1R,2R)-2-(benzyloxycyclopent-1-yl) amide] | – | – | – | 2.91
